Source: ChEMBL document CHEMBL5137025, “Tuberculosis Drug Discovery: Challenges and New Horizons” (J Med Chem, 2022)
≈ marks a conversion by molar mass, not a printed value.

Assays:
[1] = test system: Mycobacterium tuberculosis; format: functional; settings: H37Rv, 336 h, time 14 day
[2] = test system: Mycobacterium tuberculosis; assay: Antibacterial activity against Mycobacterium tuberculosis Erdman (TMCC 107) in Mtb infection C3HeB/FeJ mouse model assessed as reduction in log10 CFU in lungs at 100 mg/kg, po via gavage upto 4 weeks; format: functional
[3] = test system: Mycobacterium tuberculosis; assay: Antibacterial activity against Mycobacterium tuberculosis Erdman in acute Mtb infection C57BL/6-IFN-gamma-tm1Ts KO mouse model assessed as reduction in log10 CFU in lungs at 50 mg/kg, po qd for 9 consecutive days; format: functional
[4] = Oral bioavailability in CD-1 mouse at 10 mg/kg measured for 24 hrs; format: ADME, organism-based; settings: in vivo
[5] = test system: Mycobacterium tuberculosis; format: functional; settings: H37Rv, 120 h, time 5 day
[6] = test system: Mycobacterium tuberculosis; assay: Antibacterial activity against Mycobacterium tuberculosis Erdman (TMCC 107) in chronic Mtb infection BALB/c mouse model assessed as reduction in log10 CFU in lungs at 100 mg/kg, po via gavage upto 8 weeks; format: functional
[7] = Half life in CD-1 mouse at 5 mg/kg, iv measured for 24 hrs; format: ADME, organism-based; settings: in vivo
HepG2 [8] = assay: Cytotoxicity against human HepG2 cells assessed as reduction in cell viability treated for 72 hrs by Cell Titer Glo assay; format: functional
[9] = Protein binding in human plasma; format: ADME, cell-free; settings: read-out: PPB (converted)
[10] = Solubility of the compound; format: physicochemical
[11] = test system: Mycobacterium tuberculosis; assay: microbe, parasite or virus in culture; settings: H37Rv
Description: Antibacterial activity against Mycobacterium tuberculosis H37Rv assessed as inhibition of bacterial growth

[12] = Half life in overnight fasted Sprague-Dawley rat at 5 mg/kg measured for 0.25 to 24 hrs; format: ADME, organism-based; settings: in vivo, time 0.25-24 hrs
[13] = Absolute oral bioavailability in overnight fasted Sprague-Dawley rat at 5 mg/kg measured for 0.25 to 24 hrs; format: ADME, organism-based; settings: in vivo, time 0.25-24 hrs
A549 [14] = assay: Cytotoxicity against human A549 cells; format: functional
[15] = test system: Mycobacterium tuberculosis; assay: Antibacterial activity against Mycobacterium tuberculosis Erdman in acute Mtb infection BALB/c mouse model assessed as reduction in log10 CFU in lungs at 150 mg/kg, po via gavage daily for 4 weeks; format: functional
[16] = AUC in overnight fasted Sprague-Dawley rat at 5 mg/kg measured for 0.25 to 24 hrs; format: ADME, organism-based; set-up: time upper 24 hrs, dose 5 mg/kg, time lower 0.25 hrs; settings: in vivo
[17] = test system: Mycobacterium tuberculosis; format: functional; settings: H37Rv, time 6 day
[18] = test system: Mycobacterium tuberculosis; format: functional, H37Rv; settings: dose 50 mg/kg; route po; time 4 weeks
[19] = Selectivity index, ratio of CC50 for human HepG2 cells to MIC99 for Mycobacterium tuberculosis H37Rv; format: toxicity
HepG2 [20] = assay: Cytotoxicity against human HepG2 cells; format: functional
[21] = test system: Mycobacterium tuberculosis; format: functional, H37Rv
[22] = test system: Mycobacterium tuberculosis; format: functional, H37Rv; settings: dose 50 mg/kg/day; route po; time <= 28 day
A549 [23] = assay: Potency index, ratio of SKLB-TB1001 to test compound CC50 for cytotoxicity against human A549 cells; format: functional
[24] = test system: Mycobacterium tuberculosis; assay: Bactericidal activity against Mycobacterium tuberculosis H37Rv in chronic Mtb infection BALB/c mouse model assessed as log10 CFU kill at 20 mg/kg, po qd via gavage measured after 4 weeks; format: functional
[25] = test system: Mycobacterium tuberculosis; assay: Antibacterial activity against Mycobacterium tuberculosis in acute Mtb infection mouse model assessed as reduction in log10 CFU at 200 mg/kg for 3 weeks; format: functional
[26] = test system: Mycobacterium tuberculosis; assay: Bactericidal activity against Mycobacterium tuberculosis in macrophages; format: functional, Macrophage
[27] = test system: Mycobacterium tuberculosis; format: functional; settings: H37Rv, time 14-21 day
[28] = test system: Mycobacterium tuberculosis; format: functional, H37Rv; settings: dose 25 mg/kg; route po; time 4 weeks
[29] = test system: Mycobacterium tuberculosis; assay: Antibacterial activity against Mycobacterium tuberculosis Kurono in chronic Mtb infection Slc:ICR mouse model assessed as reduction in log10 CFU in lungs at 2.5 mg/kg, po qd for 4 weeks; format: functional
[30] = test system: Mycobacterium tuberculosis; assay: Antibacterial activity against Mycobacterium tuberculosis in chronic Mtb infection Wistar rat model assessed as reduction in log10 CFU in lungs at 100 mg/kg, po; format: functional
[31] = test system: Mycobacterium tuberculosis; format: functional; settings: H37Rv
[32] = test system: Mycobacterium tuberculosis; assay: Antibacterial activity against Mycobacterium tuberculosis Erdman in acute Mtb infection BALB/c mouse model assessed as reduction in log10 CFU in lungs at 50 mg/kg, po via gavage for 8 weeks; format: functional

## O=C(Nc1ccc(N2CCN(c3ccccn3)CC2)c(F)c1)c1ccc2no[n+]([O-])c2c1
[1]
  MIC90: 0.09 µM (≈ 0.0391 µg/mL)

## CCS(=O)(=O)N1N=Cc2ccc(Oc3ccc(C(F)(F)F)cc3/C=N/O)cc2B1O
[2]
  Activity: 1.5 log10CFU
[3]
  Activity: 3.7 log10CFU
[4]
  bioavailability: 53%
[5]
  MIC90: 0.09 µM (≈ 0.0397 µg/mL)
[6]
  Activity: 1.7 log10CFU
[7]
  half-life: 3.5 h
HepG2 [8]
  CC50: > 100 µM

## O=C(Nc1ccc(N2CCSCC2)c(F)c1)c1ccc2no[n+]([O-])c2c1
[1]
  MIC90: 0.7 µM (≈ 0.262 µg/mL)

## O=c1nc(N2CCC3(CC2)OCCO3)sc2c([N+](=O)[O-])cc(C(F)(F)F)cc12
[9]
  fraction unbound: 0.006
[10]
  solubility: < 2.3 µM
[11]
  MIC90: 0.045 µM (≈ 0.0188 µg/mL)
[12]
  half-life: 1.5 h
[13]
  bioavailability: 44%
A549 [14]
  CC50: > 231 µM
[15]
  Activity: 3.4 log10CFU
[16]
  AUC: 847 ng·h/mL

## O=S(=O)(NCCO)c1ccc(-c2nnn(Cc3ccc(F)cn3)n2)cc1
[11]
  MIC: 0.07 µM (≈ 0.0265 µg/mL)

## CS(=O)(=O)N1N=Cc2ccc(Oc3ccc(C#N)cc3)cc2B1O
[5]
  MIC90: 36 µM (≈ 12.3 µg/mL)

## O=c1nc(N2CCN(S(=O)(=O)C3CC3)CC2)sc2c([N+](=O)[O-])cc(C(F)(F)F)cc12
[10]
  solubility: 19 µM (≈ 8.82 µg/mL)
[17]
  MIC99: 0.0065 µM (≈ 0.00302 µg/mL)
[18]
  Activity: 0.5 log10CFU
[19]
  selectivity ratio: 2620
HepG2 [20]
  CC50: 17 µM

## COc1ncc(-c2ccc(Cl)cc2)cc1[C@@H](c1ccccc1)[C@@](O)(CCN(C)C)c1cccc2ccccc12
[11]
  MIC90: 0.13 µM (≈ 0.0698 µg/mL)

## COc1nc2ccc(Br)cc2cc1[C@@H](c1ccccc1)[C@@](O)(CCN(C)C)c1cccc2ccccc12 [BEDAQUILINE]
[11]
  MIC90: 0.022 µM (≈ 0.0122 µg/mL)
[21]
  Ratio: 6

## C[C@H]1COC2(CCN(c3nc(=O)c4cc(C(F)(F)F)cc([N+](=O)[O-])c4s3)CC2)O1 [BTZ-043]
[12]
  half-life: 1.2 h
[22]
  Activity: 0.6 log10CFU
[13]
  bioavailability: 30%
A549 [14]
  CC50: 58 µM
[16]
  AUC: 899 ng·h/mL
A549 [23]
  Ratio: 4

## Cc1cc(Nc2ncc(Cl)c(Nc3ccccc3S(=O)(=O)C(C)C)n2)c(OC(C)C)cc1C1CCNCC1 [CERITINIB]
[11]
  MIC90: 9 µM (≈ 5.02 µg/mL)

## CC(C)/N=c1\cc2n(-c3ccc(Cl)cc3)c3ccccc3nc-2cc1Nc1ccc(Cl)cc1 [CLOFAZIMINE]
[24]
  Activity: 2.2 log10CFU

## N[C@@H]1CONC1=O [CYCLOSERINE]
[11]
  MIC: 157 µM (≈ 16 µg/mL)

## CCc1cc(C(N)=S)ccn1 [ETHIONAMIDE]
[11]
  MIC: 12 µM (≈ 1.99 µg/mL)

## C[C@@H](O)[C@H]1C(=O)N2C(C(=O)O)=C([C@H]3CCCO3)S[C@H]12 [FAROPENEM]
[11]
  MIC90: 1.8 µM (≈ 0.514 µg/mL)
[25]
  Activity: 2.4 log10CFU

## Cc1cccc(OC2CCN(Cc3cc(=O)[nH]c(=O)[nH]3)CC2)c1C [GSK-2556286]
[26]
  Activity: <0.1 µM

## CC(=O)NC[C@H]1CN(c2ccc(N3CCOCC3)c(F)c2)C(=O)O1 [LINEZOLID]
[27]
  MIC: 1.5 µM (≈ 0.506 µg/mL)
[11]
  MIC: 1.5 µM (≈ 0.506 µg/mL)

## O=c1nc(N2CCN(CC3CCCCC3)CC2)sc2c([N+](=O)[O-])cc(C(F)(F)F)cc12 [MACOZINONE]
[22]
  Activity: 1.1 log10CFU
[28]
  Activity: 1 log10CFU

## O=C1CCc2c(OC[C@]3(O)CCN(c4c(F)cc(Cl)cc4F)C[C@H]3O)ccc(F)c2N1 [QUABODEPISTAT]
[29]
  Activity: >1 log10CFU

## CC(C)=CCC/C(C)=C/CNCCNC1C2CC3CC(C2)CC1C3 (stereo unspecified) [SQ109]
[11]
  MIC: 1.2 µM (≈ 0.397 µg/mL)

## CC(=O)NC[C@H]1CN(c2ccc(N3CCSCC3)c(F)c2)C(=O)O1 [SUTEZOLID]
[11]
  MIC80: 0.28 µM (≈ 0.099 µg/mL)

## COc1ncnc(Cn2cc(C(=O)NCCO)c3ncc(C)cc32)c1C [TBA-7371]
[30]
  Activity: 1 log10CFU

## CCc1nc2ccc(Cl)cn2c1C(=O)NCc1ccc(N2CCC(c3ccc(OC(F)(F)F)cc3)CC2)cc1 [TELACEBEC]
[31]
  MIC50: 0.0027 µM (≈ 0.0015 µg/mL)
[11]
  MIC90: 0.011 µM (≈ 0.00613 µg/mL)
[32]
  Activity: 0.6 log10CFU
